Assays:
Endothelin-1 receptor = target: T1, Endothelin-1 receptor (Homo sapiens, UniProt P25101); test: Tested for binding affinity towards human Endothelin A receptor
T1 sequence (P25101 whole entry): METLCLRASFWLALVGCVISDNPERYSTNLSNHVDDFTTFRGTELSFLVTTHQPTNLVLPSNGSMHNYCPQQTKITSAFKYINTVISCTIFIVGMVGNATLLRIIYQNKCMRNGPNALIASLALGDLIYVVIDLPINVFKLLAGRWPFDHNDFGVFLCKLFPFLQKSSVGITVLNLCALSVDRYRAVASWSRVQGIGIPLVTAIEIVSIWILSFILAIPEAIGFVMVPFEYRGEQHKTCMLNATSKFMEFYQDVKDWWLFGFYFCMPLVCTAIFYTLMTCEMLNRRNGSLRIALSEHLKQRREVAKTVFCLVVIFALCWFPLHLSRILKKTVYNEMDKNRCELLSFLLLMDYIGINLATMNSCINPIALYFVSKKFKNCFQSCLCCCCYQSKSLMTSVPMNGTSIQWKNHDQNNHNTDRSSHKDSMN

[1] = target: T2, Endothelin receptor type B (Homo sapiens, UniProt P24530); test: Tested for binding affinity towards human Endothelin B receptor
T2 sequence (P24530 whole entry): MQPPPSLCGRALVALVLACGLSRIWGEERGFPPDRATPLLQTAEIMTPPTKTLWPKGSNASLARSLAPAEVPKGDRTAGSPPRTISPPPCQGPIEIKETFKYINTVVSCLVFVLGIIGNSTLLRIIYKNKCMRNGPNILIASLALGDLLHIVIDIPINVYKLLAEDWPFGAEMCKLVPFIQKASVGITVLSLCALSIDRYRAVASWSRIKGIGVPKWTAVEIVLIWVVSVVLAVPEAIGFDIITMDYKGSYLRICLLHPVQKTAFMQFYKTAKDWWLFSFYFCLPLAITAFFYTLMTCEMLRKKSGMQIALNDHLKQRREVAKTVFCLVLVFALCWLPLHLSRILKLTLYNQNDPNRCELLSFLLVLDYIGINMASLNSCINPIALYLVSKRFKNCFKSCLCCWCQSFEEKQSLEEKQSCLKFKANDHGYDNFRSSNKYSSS

Row | Structure (SMILES) | IC50 (Endothelin-1 receptor) [µM] | IC50 [1] [µM]
1 | C/C=C/C=C/C=C/C(=O)O[C@@H]1C=C2COC(O)[C@]2(O)[C@@]2(C)CCCC(C)(C)C12 (stereo partly drawn) | 62 | 
2 | C/C=C/C=C/C(=O)O[C@@H]1C=C2COC(=O)[C@]2(O)CC1 | 2.6 | > 25
3 | C/C=C/C=C/C(=O)O[C@@H]1C=C2COC(O)[C@]2(O)CC1 (stereo partly drawn) |  | > 25

Second part, led by results:

Row | IC50 (Endothelin-1 receptor) [µM] | Structure (SMILES) | IC50 [1] [µM]
4 | 8.2 | C/C=C/C=C/C(=O)O[C@@H]1C=C2COC(OC)[C@]2(O)CC1 (stereo partly drawn) | > 25
5 | > 250 | C/C=C/C=C/C(=O)O[C@@H]1C=C2COC(O)[C@]2(O)[C@@]2(C)CCCC(C)(C)C12 (stereo partly drawn) | 148

Reference: ChEMBL document CHEMBL1133352, “Synthesis and endothelin receptor binding activity of synthetic analogues of RES-1149-2” (Bioorg Med Chem Lett, 2000)
